Measured values from US10086077B2, “Activated macrophage targetable drug carrier for treatment of atherosclerosis and methods of preparing the same” (Korea University Research and Business Foundation, priority 2016, dated 2018).

Columns and labels:
ApoE−/− mice [1] = assay: In vivo imaging of carotid atherosclerotic plaque, general and in-vivo fluorescence microscope; settings: 14 mg/kg/week for four weeks, before vs after
Text: In order to evaluate a possibility of reducing inflammation and a size of the atherosclerotic plaque in vivo of the drug carrier encapsulated with the lobeglitazone, the drug carrier encapsulated with the lobeglitazone was administrated in mice (ApoE−/− mice) causing the atherosclerosis at a carotid branch.
More particularly, the ApoE −/− mice with the atherosclerosis are divided into three groups, and then in the first group, a drug carrier encapsulated with a mannose receptor-specific lobeglitazone was administrated (14 mg/kg/week), in the second group, the same quantity of lobeglitazone was orally administrated (14 mg/kg/week), and in the third group, a treating drug was not administrated. After the drug was administrated for four weeks, the same carotid branch portion was peeled and the size and the inflammation degree of the atherosclerotic plaque before and after treatment were observed and compared by a general microscope and an in-vivo fluorescence microscope.
Particularly, the effect of treating atherosclerosis was evaluated by comparing and analyzing an atherosclerotic size and an inflammation degree before administrating the drug and after administrating the drug for four weeks by administrating a glycol chitosan-based drug carrier (attached with a fluorescent material) capable of imaging an atherosclerotic plaque selectively bound to the mannose receptor over-expressed in the macrophage to an atherosclerotic model mouse and then peeling the carotid branch portion to image the carotid branch portion by an in-vivo fluorescence microscope.
In order to objectively quantify the inflammation degree expressed in the atherosclerotic plaque, a signal of autofluorescence or more of the atherosclerotic plaque measured in the Experimental Example 4 was extracted to quantify the range of signal expression and the degree of signal intensity.

ApoE−/− mice [2] = assay: Histopathology of carotid atherosclerotic plaque: H&E, MAC3 and CD 206 staining; type: in vivo; settings: after four weeks (FIG. 9)
Protocol: Further, the effect of treating atherosclerosis of the drug carrier encapsulated with the lobeglitazone was evaluated by histopathologically analyzing the size of the atherosclerotic plaque reflecting the inflammation degree of the atherosclerotic plaque, distribution of the macrophages, and expression of mannose receptors in the macrophage. The atherosclerotic plaque of the carotid extracted from the arteriosclerosis model mouse was stained by H&E staining, MAC3 staining (macrophage staining), and CD 206 staining (macrophage mannose receptor staining).
FIG. 9 is a photograph illustrating sizes of atherosclerotic plaques by using H&E staining, MAC3 staining, and CD 206 staining in the group administered with the drug carrier according to an example embodiment, the group administered orally with lobeglitazone, and the group administered with no drug. FIG. 9 is a photograph illustrating an atherosclerotic plaque in the carotid extracted from the mouse by CD 206 staining (macrophage mannose receptor staining), MAC3 staining (macrophage staining), and H&E staining, before administrating the drug and after administrating the drug for four weeks, respectively, in a group (MMR-lobe) administrated with a glycol chitosan drug carrier encapsulated with lobeglitazone, a group (PO-Lobe) orally administrated with lobeglitazone, and a group (Control) administered with no drug, respectively.

## COc1ccc(Oc2cc(N(C)CCOc3ccc(CC4SC(=O)NC4=O)cc3)ncn2)cc1 (stereo not drawn) [lobeglitazone]
ApoE−/− mice [1]; images (FIGS. 5A-5C)
  inflammation degree of the atherosclerosis: not largely changed
  size of the atherosclerosis: not largely changed
ApoE−/− mice [1]; quantified (FIG. 6)
  fluorescence intensity expressed in the atherosclerotic plaque: no difference
ApoE−/− mice [2]; CD 206 staining
  CD 206 (macrophage mannose receptor staining): decreased
ApoE−/− mice [2]; H&E staining
  size of the atherosclerotic plaque: decreased
ApoE−/− mice [2]; MAC3 staining
  MAC3 (macrophage staining): decreased
